{"source": "patent US20210350875A1", "about": "“HIGH THROUGHPUT METHOD AND SYSTEM FOR MAPPING INT[…] DIAGRAMS” (The Trustees of Princeton University, priority 2018, published 2021)", "origin": "cited, not measured here", "test_system": "phase separation", "conditions": "positive control agent, 10 wells, FIG. 2B", "data": [{"substance": "hexanediol", "values": [{"measurement": "inhibition of phase separation", "result": "fully inhibit phase separation"}]}]}
